The text below walks through data of patent US20130102645A1, “Methods and compositions for controlling vascularization in ophthalmological and dermatological diseases” (AVIENNE PHARMACEUTICALS GMBH, priority 2011, published 2013).

Data set [1] has as its system endothelial cell lines. Kind of data set: proliferation assay of primary endothelial cells, direct cell counting. The data set is classed as cell-based, human. As for the experimental part: Primary endothelial cell lines (HMVEC-dLyAd—human dermal lymphatic microvascular endothelial cells (EC), dermal blood microvascular EC, HMVEC-LB lung blood microvascular EC, HMVEC-C cardiac human microvascular endothelial cells and MVEC-d—dermal microvascular EC) are from Cambrex Bio Science (Cambrex Bio Science Walkersville Inc., Walkersville, Md., USA). Cell lines are cultured according to the manufacturer's recommendations.
For proliferation assays, cells are seeded in 24- to 96-well plates in medium at different concentrations according to the cell type. After 24 hours, the medium is removed and replaced with fresh medium containing increasing concentrations of the compounds. The plates are then incubated for additional 24 to 72 hours, depending on the type of the experiment. Cells are then trypsinized and collected for direct counting. Results are plotted and expressed as means (±SE) for each compound and for a given concentration.

In data set [2] the test system is endothelial cells. The following applies: read-out: IC50, colony-forming ability of endothelial cells; cited from earlier work.
The test system of data set [3] is HUVEC. The experiment in a line: growth inhibition of HUVEC cell lines. It is filed as cell-based. The following applies: Homo sapiens, read-out: IC50 for growth inhibition of HUVECs. As to the method:
For proliferation assays, cells are seeded in 24- to 96-well plates in medium at different concentrations according to the cell type. […] Cells are then trypsinized and collected for direct counting. Results are plotted and expressed as means (±SE) for each compound and for a given concentration.
In Table 2, the group “R” is defined as follows: […]

Data set [4] relates to SAOS-2, Hela, HT29, U87MG and SK-N-DZ cells. The experiment in a line: cytotoxic activity in cancer cell lines by cell numbers. The data set is classed as cell-based. The following applies: up to 20 μM; uncoated dishes or coated with vitronectin or fibrinogen. As to the method: For example, cytotoxic activity of AV-398 was determined in several cancer cell lines (SAOS-2, Hela, HT29, U87MG and SK-N-DZ cells) by assessing cell numbers after treating cell lines with varying concentration of up to 20 μM. Experiments were performed either on uncoated dishes, or on dishes coated with vitronectin or fibrinogen. In addition, tumor cell lines were treated in parallel with echistatin (Gan Z R et al (1998)). […] Similar data were recently published showing cytotoxic activity also only against MDA-MB-435 breast cancer cells (Dayam R et al, 2006).

Data set [5] deals with MDA-MB-435. The experiment in a line: cytotoxic activity in breast cancer cell line. It is filed as cell-based. The following applies: up to 20 μM.
Data set [6] relates to ocular angiogenesis. Kind of data set: conjunctival incision angiogenesis model in pigs, eye drops. It is filed as in vivo, pig. The source says: AV-398 inhibits ocular angiogenesis in vivo in a widely accepted large animal model. The cornea is an ideal model system for angiogenesis in general, and more specifically for angiogenesis of the eye. The corneal angiogenesis assay is one of the most widely used in vivo assay for the evaluation of factors influencing angiogenesis (Auerbach R, 2003, Thiele W, 2006). One reason that makes the cornea an ideal object for observing neovascularization is its normal lack of vascularity, maintained by different molecular mechanisms. New vessels can easily be identified by visual inspection alone and quantified with the help of computerized image analysis programs. The effect of an ophthalmological formulation of AV-398 after a conjunctival insult with subsequent angiogenesis in a large animal model was investigated in order to test whether the in vitro data, such as anti-proliferative effects on human endothelial cells, could be reproduced in vivo.
Six white pigs weighing 10 to 15 kg were included. First, corneae and conjunctivae were anaesthesized by local application of lidocaine 4%. Then, an incision of 0.5 cm length through the conjunctival tunica sclerae to the substantia propria was placed in parallel to the dorsal corneal limbus at a distance of approximately 2 mm. The animals were treated as follows. The right eye of each animal was treated with a commercially available ocular eye drop solution (PROTAGENT® EYE DROPS 2%) containing 100 μg/ml of AV-398. The corresponding left eyes of each animal were control-treated with the same eye drop solution alone. Two droplets (˜100 μl) of AV-398 were applied in the right eye immediately after setting of the incision and two droplets of the ophthalmologic carrier formula as negative control in the left eye of the same animal. Animals received AV-398 as well as the eye drops 0.5 hrs post incision and the same treatment at 3 hrs post incision.

Data set [7] has as its system chorioallantoic membrane (CAM) of the developing chicken embryo. The experiment in a line: chicken egg chorioallantoic membrane (CAM) assay. It is filed as in vivo. The settings on record: applied on CAM day 6 p.f., incubated until day 11 p.f. The text has this: Local application of AV-398 inhibits in vivo angiogenesis as evidenced by the chicken egg chorioallantoic membrane model. The chorioallantoic membrane (CAM) of the developing chicken embryo serves as an alternative to the traditional mammalian in vivo models, and further corroborates the findings in pigs described above and has clear relevance for the treatment e.g. dermatological indications linked to neoangiogenesis. AV-398 was applied over 5 days.
Eggs were opened on day 6 post fertilization (p.f.). Substances (200 μl respectively) were applied on the CAM on day 6 p.f. and incubated until day 11 p.f. As a vehicle control, 1% DMSO in PBS (phosphate-buffered saline solution pH 7.4) without AV-398 was used. Eggs were inspected daily by stereo-microscopy and pictures were taken (6× magnification).

Data set [8] can be described thus: rat pharmacokinetics, plasma LC-MS/MS. The data set is classed as in vivo. The following applies: for half-life: iv, 5 mg/kg. As to the method:
(§1) Preliminary pharmacokinetic and preliminary toxicology information was obtained following a single intravenous dose of 5 mg/kg and a single 20 mg/kg PO dose to male Sprague-Dawley rats for 5 separate test articles. AV-398 was dosed both via the IV and PO routes. Blood was collected from the animals in Groups 1 through 10 for pharmacokinetic analysis. Approximately 0.25 mL of blood was collected in potassium EDTA tubes via the jugular cannulae for all time points. For all IV treated animals, blood was collected at 9 time points (0.083, 0.25, 0.5, 1, 2, 4, 6, 8 and 12 hour post-dose) via the jugular cannulae. For all animals treated by oral gavage, blood was collected at 7 time points (0.5, 1, 2, 4, 6, 8 and 12 hour post-dose) via the jugular cannulae. At the final time point additional blood volume was collected in a separate EDTA tube from each animal for clinical pathology evaluation (including serum chemistry and hematology). Predose samples were collected from the extra animals which were not assigned to any of the dose groups. The plasma samples were analyzed by LC-MS/MS to determine the plasma concentrations of drug candidates. Pharmacokinetic analysis of the plasma concentration data was conducted using non-compartmental analysis with WinNonlin Version 4.1. […] The oral absorption of AV-398 when administered at 20 mg/kg dose as a suspension was low at an average of 8.4%.

A short description of data set [9]: rat clinical pathology (serum chemistry and hematology). The data set is classed as in vivo. The settings on record: rats, single 5 mg/kg IV or 20 mg/kg PO. As for the experimental part:
as §1

Data set [10] can be described thus: solubility. The data set is classed as physicochemical. As to the method:
Sufficiently concentrated solutions are readily achievable. AV-398 is soluble in PBS 7.4 at 100 μg/ml, in Tris.Cl buffer at 1 mg/ml, and as a sodium salt at least up to 20 mg/ml.

The target in data set [11] is αvβ3-receptor (Homo sapiens, UniProt P05106+P06756). The following applies: cited from earlier work.
Chain of αvβ3-receptor (P06756 31-889 limits assumed): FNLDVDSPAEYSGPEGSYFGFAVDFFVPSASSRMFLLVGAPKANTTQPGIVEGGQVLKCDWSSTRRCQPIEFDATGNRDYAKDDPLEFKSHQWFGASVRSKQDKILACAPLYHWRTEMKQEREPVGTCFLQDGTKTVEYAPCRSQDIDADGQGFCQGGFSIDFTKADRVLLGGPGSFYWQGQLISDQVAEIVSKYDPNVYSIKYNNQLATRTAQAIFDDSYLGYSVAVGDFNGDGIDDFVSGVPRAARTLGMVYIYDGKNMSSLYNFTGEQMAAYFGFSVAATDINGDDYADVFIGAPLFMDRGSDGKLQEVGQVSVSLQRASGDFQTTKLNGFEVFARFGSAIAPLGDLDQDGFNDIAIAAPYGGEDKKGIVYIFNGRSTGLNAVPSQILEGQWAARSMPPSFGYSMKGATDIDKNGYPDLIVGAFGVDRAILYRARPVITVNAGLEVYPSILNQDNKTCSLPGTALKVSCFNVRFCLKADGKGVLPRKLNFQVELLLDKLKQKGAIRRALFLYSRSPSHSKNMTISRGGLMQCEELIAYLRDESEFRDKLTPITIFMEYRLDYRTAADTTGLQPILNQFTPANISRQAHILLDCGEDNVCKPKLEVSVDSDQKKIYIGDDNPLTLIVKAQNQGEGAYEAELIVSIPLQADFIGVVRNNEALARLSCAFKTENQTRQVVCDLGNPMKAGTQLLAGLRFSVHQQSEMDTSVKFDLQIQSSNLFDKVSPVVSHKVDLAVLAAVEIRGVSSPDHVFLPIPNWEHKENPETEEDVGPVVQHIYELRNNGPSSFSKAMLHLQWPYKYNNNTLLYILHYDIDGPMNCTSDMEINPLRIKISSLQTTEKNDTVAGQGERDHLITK
Chain of αvβ3-receptor (P06756 891-1048 partner limits assumed): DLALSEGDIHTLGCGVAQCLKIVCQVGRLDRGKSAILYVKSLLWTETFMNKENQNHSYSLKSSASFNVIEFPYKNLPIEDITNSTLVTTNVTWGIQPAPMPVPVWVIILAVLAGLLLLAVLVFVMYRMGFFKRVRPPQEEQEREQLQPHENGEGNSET
Chain of αvβ3-receptor (P05106 27-788): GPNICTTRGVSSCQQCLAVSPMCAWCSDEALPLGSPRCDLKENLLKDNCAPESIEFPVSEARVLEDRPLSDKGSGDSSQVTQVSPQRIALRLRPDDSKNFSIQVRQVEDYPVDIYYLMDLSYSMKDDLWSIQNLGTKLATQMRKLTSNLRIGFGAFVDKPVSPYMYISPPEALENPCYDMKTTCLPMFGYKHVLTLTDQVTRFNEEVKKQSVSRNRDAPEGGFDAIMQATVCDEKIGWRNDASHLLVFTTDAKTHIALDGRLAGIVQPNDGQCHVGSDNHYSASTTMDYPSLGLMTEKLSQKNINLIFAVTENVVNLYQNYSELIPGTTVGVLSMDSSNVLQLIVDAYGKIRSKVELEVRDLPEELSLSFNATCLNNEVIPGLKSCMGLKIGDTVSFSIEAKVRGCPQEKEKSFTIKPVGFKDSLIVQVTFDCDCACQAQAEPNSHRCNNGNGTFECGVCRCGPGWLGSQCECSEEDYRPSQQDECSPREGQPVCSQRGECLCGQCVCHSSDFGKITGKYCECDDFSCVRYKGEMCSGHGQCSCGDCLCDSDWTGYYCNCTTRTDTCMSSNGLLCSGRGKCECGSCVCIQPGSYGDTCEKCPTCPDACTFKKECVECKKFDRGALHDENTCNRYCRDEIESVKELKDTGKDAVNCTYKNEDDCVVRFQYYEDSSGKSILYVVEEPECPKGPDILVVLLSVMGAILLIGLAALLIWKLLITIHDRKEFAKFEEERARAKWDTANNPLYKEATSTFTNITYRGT

Values after ≈ are worked out from the molar mass of the structure shown. “Also recorded” adds a separate entry of the source. Like-named read-outs stand apart in the source and are kept apart here.

Turning to echistatin [reference compound], the IC50 in [1] (endothelial cells (lung, lymphatics, umbilical), FIGS. 1-3, read-out: Half-maximal growth inhibition) was found to be 0.8 µM.
With `CC(C)[C@H]1C(=O)N[C@@H](CCCN=C(N)N)C(=O)NCC(=O)N[C@@H](CC(=O)O)C(=O)N[C@H](Cc2ccccc2)C(=O)N1C` [Cilengitide, cycloL-Arg-Gly-L-Asp-D-Phe-N [Me] L-Val], the IC50 in data set [2] is 6.7 ± 1.2 µM.
In the case of `CCOc1cc(C=C2S/C(=N/c3ccc(C(=O)O)cc3)N(C)C2=O)ccc1O` (stereo in doubt) [AV-398, 4-({5-[(E)-1-(3-ethoxy-4-hydroxyphenyl)methylidene]-3-methyl-4-oxo-1,3-thiazolan-2-yliden}amino)benzoic acid], the IC50 in data set [1] (Homo sapiens, Endothelial cell, endothelial cells (lung, lymphatics, umbilical), FIGS. 1-3, read-out: Half-maximal growth inhibition) was 0.4 µM; in data set [1] (Homo sapiens, endothelial cell lines, read-out: 50% inhibitory concentration), 0.2 to 0.5 µM; in data set [3], < 0.3 µM. For the same molecule, the “effects on cancer cell lines (cytotoxic activity)” value in [4] is given as “no meaningful effects”. Further, the “activity against breast cancer cell line MDA-MB-435” value in [5] is “limited activity”. The “neoangiogenesis on conjunctivae vs control-treated eyes” value in [6] (eye drops 100 μg/ml, right eye, left eye vehicle) is on record as “diminished neoangiogenesis”. In data set [6] (immediately after treatment), the “bleeding surrounding the incision” value is reported as “marked diffuse bleeding”. Also, the “local or systemic adverse side effects” value in data set [6] (three weeks post incision) is given as “no local or systemic adverse side effects”. In addition, the “vascularization of CAM / chicken embryo vs vehicle control” value in data set [7] was “markedly decreased vascularization; also recorded: significant reduction of vascularization”. Besides, in data set [8] (20 mg/kg as a suspension), the “oral absorption (average)” value amounted to 8.4%. Also, in data set [8] (IV 5 mg/kg), the “peak plasma concentration (average)” value was found to be 1736.56 ng/mL. The “time of peak plasma concentration” value in data set [8] (IV 5 mg/kg) amounted to 0.083 h. Also, in data set [8] (PO 20 mg/kg suspension), the “peak plasma concentration (mean)” value stood at 54.07 ng/mL. Further, in [8] (male, Sprague-Dawley, plasma, IV 5 mg/kg), the AUC(0-inf) came out at 0.69 µg·h/mL. Also, in data set [8] (male, Sprague-Dawley, plasma, PO 20 mg/kg suspension, read-out: average AUC (0-12 hr)), the AUC(0-t) was 0.234 µg·h/mL. In addition, the half-life in [8] (male, Sprague-Dawley, plasma, IV 5 mg/kg, read-out: Terminal plasma half-life (converted)) is 30 min; in data set [8] (male, Sprague-Dawley, plasma, IV 5 mg/kg, read-out: terminal plasma half-life (range)), 10.8 to 40.8 min; in data set [8] (male, Sprague-Dawley, plasma, after intravenous administration, read-out: terminal plasma half-life (converted)) it was 30 min. In addition, the “effects on hematological and serum chemistry parameters” value in data set [9] is given as “no side-related effects”. In addition, the solubility in data set [10] (Tris.Cl buffer, aqueous buffer) is 1 mg/mL (≈ 2510 µM); in data set [10] (as a sodium salt), ≥ 20 mg/mL; in data set [10] (pH 7.4, aqueous buffer, PBS 7.4) it was 0.1 mg/mL (≈ 251 µM). Further, in data set [11], the αυβ3 binding affinity was 240 nM.
